This is an account of results in ChEMBL document CHEMBL1759982, “Hybrid compounds as new Bcr/Abl inhibitors” (Bioorg Med Chem Lett, 2011).

Assay [1] relates to K562. Kind of assay: Antiproliferative activity against human K562 cells. In kind it is functional, cell-based.
Assay [2] can be described thus: Antiproliferative activity against human KU812 cells. The assay is classed as functional, cell-based.
The subject of assay [3] is K562. Kind of assay: Antiproliferative activity against human imatinib-resistant K562 cells. The assay is classed as functional, cell-based.
In another assay the target is Bcr/Abl fusion protein (Homo sapiens, UniProt P00519). Kind of assay: Inhibition of Bcr/Abl by FRET-based Z-lyte assay. In kind it is protein assay.
Assay [4] addresses Bcr/Abl fusion protein (Homo sapiens) (UniProt P00519+P11274). Kind of assay: Inhibition of Bcr/Abl autophosphorylation in human K562 cells after 4 hrs by Western blotting. In kind it is cell-based.
The test system of assay [5] is K562. Put plainly: Cell cycle arrest in human K562 cells assessed as accumulation at G0/G1 phase at 20 nM by Flow cytometry (reference value: 49.42%). The assay is classed as functional.
Assay [6] relates to K562. Kind of assay: Cell cycle arrest in human K562 cells assessed as accumulation at G0/G1 phase at 50 nM by Flow cytometry (reference value: 49.42%). The assay is classed as functional. In general terms: In flow cytometry, cells or beads pass a laser one at a time.
The test system of assay [7] is K562. Kind of assay: Cell cycle arrest in human K562 cells assessed as accumulation at G0/G1 phase at 100 nM by Flow cytometry (reference value: 49.42%). The assay is classed as functional.
Assay [8] relates to K562. Put plainly: Cell cycle arrest in human K562 cells assessed as accumulation at S phase at 20 nM by Flow cytometry (reference value: 46.15%). In kind it is functional.
The test system of assay [9] is K562. Kind of assay: Cell cycle arrest in human K562 cells assessed as accumulation at S phase at 50 nM by Flow cytometry (reference value: 46.15%). In kind it is functional.
The subject of assay [10] is K562. Kind of assay: Cell cycle arrest in human K562 cells assessed as accumulation at S phase at 100 nM by Flow cytometry (reference value: 46.15%). In kind it is functional.
Assay [11] relates to K562. Put plainly: Cell cycle arrest in human K562 cells assessed as accumulation at G2/M1 phase at 20 nM by Flow cytometry (reference value: 4.43%). In kind it is functional.
Assay [12] deals with K562. Kind of assay: Cell cycle arrest in human K562 cells assessed as accumulation at G2/M1 phase at 50 nM by Flow cytometry (reference value: 4.43%). The assay is classed as functional.
The subject of assay [13] is K562. Kind of assay: Cell cycle arrest in human K562 cells assessed as accumulation at G2/M1 phase at 100 nM by Flow cytometry (reference value: 4.43%). In kind it is functional.
For assay [14], the system named is K562. Put plainly: Induction of apoptosis in human K562 cells assessed as viable cells at 20 nM using annexin V-propidium iodide and annexin V staining by flow cytometry (reference value: 87.02%). In kind it is functional. The conditions noted are these: read-out: Activity.
Assay [15] deals with K562. Kind of assay: Induction of apoptosis in human K562 cells assessed as viable cells at 50 nM using annexin V-propidium iodide and annexin V staining by flow cytometry (reference value: 87.02%). The assay is classed as functional. The settings on record: read-out: Activity.
The test system of assay [16] is K562. Kind of assay: Induction of apoptosis in human K562 cells assessed as viable cells at 100 nM using annexin V-propidium iodide and annexin V staining by flow cytometry (reference value: 87.02%). The assay is classed as functional. The conditions noted are these: read-out: Activity.
The subject of assay [17] is K562. Kind of assay: Induction of apoptosis in human K562 cells assessed as early apoptotic cells at 20 nM using annexin V-propidium iodide and annexin V staining by flow cytometry (reference value: 3.34%). In kind it is functional.
In assay [18] the test system is K562. Kind of assay: Induction of apoptosis in human K562 cells assessed as early apoptotic cells at 50 nM using annexin V-propidium iodide and annexin V staining by flow cytometry (reference value: 3.34%). The assay is classed as functional.
Assay [19] deals with K562. Kind of assay: Induction of apoptosis in human K562 cells assessed as early apoptotic cells at 100 nM using annexin V-propidium iodide and annexin V staining by flow cytometry (reference value: 3.34%). In kind it is functional.
For assay [20], the system named is K562. Kind of assay: Induction of apoptosis in human K562 cells assessed as late apoptotic cells at 20 nM using annexin V-propidium iodide and annexin V staining by flow cytometry (reference value: […]%). In kind it is functional.
In assay [21] the test system is K562. Put plainly: Induction of apoptosis in human K562 cells assessed as late apoptotic cells at 50 nM using annexin V-propidium iodide and annexin V staining by flow cytometry (reference value: […]%). In kind it is functional.
The test system of assay [22] is K562. Kind of assay: Induction of apoptosis in human K562 cells assessed as late apoptotic cells at 100 nM using annexin V-propidium iodide and annexin V staining by flow cytometry (reference value: […]%). In kind it is functional.
Assay [23] deals with K562. Put plainly: Induction of apoptosis in human K562 cells assessed as pre-necrotic cells at 20 nM using annexin V-propidium iodide and annexin V staining by flow cytometry (reference value: 1.42%). In kind it is functional.
For assay [24], the system named is K562. Kind of assay: Induction of apoptosis in human K562 cells assessed as pre-necrotic cells at 50 nM using annexin V-propidium iodide and annexin V staining by flow cytometry (reference value: 1.42%). In kind it is functional.
In assay [25] the test system is K562. Kind of assay: Induction of apoptosis in human K562 cells assessed as pre-necrotic cells at 100 nM using annexin V-propidium iodide and annexin V staining by flow cytometry (reference value: 1.42%). The assay is classed as functional.

The term pIC50 denotes the IC50 on a negative log10 scale, so that one unit is a factor of ten. High values mean a small IC50, low ones a large IC50.

pIC50: −log10 of the molar value. Active and inactive are the calls of the source. The rule behind the calls is not given here.

Bcr/Abl fusion protein, sequence (P00519 whole entry, the tested form may be a part): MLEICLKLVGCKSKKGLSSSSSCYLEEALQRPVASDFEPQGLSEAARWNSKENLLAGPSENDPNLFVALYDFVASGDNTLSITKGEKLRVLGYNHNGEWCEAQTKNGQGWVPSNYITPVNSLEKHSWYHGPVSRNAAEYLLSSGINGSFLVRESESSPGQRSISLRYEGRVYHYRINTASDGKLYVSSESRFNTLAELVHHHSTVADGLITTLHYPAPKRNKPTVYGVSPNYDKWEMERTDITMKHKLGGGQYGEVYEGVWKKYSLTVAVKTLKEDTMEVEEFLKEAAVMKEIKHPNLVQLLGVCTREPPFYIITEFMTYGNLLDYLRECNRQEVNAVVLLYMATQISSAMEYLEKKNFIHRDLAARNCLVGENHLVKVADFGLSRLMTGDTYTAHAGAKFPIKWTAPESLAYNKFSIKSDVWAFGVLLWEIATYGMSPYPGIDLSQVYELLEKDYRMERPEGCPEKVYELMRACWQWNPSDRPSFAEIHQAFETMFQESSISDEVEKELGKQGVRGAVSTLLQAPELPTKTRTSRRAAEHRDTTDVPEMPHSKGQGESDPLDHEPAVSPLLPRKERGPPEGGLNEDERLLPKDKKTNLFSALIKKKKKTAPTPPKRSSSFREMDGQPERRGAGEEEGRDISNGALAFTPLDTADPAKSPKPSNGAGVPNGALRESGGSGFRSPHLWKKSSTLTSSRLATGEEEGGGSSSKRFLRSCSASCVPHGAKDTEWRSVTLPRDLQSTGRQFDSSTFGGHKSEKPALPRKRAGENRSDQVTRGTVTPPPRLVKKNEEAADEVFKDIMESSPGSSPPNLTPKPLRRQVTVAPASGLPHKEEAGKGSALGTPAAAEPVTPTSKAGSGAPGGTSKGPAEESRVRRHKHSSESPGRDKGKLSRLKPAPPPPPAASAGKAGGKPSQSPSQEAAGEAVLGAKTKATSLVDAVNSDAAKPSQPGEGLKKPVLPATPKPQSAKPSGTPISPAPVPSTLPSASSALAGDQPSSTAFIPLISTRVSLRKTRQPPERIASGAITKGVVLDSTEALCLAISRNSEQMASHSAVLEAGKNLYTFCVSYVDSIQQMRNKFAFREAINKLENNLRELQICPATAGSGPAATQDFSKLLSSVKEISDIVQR
Bcr/Abl fusion protein, sequence (P11274 whole entry, further chain, the tested form may be a part): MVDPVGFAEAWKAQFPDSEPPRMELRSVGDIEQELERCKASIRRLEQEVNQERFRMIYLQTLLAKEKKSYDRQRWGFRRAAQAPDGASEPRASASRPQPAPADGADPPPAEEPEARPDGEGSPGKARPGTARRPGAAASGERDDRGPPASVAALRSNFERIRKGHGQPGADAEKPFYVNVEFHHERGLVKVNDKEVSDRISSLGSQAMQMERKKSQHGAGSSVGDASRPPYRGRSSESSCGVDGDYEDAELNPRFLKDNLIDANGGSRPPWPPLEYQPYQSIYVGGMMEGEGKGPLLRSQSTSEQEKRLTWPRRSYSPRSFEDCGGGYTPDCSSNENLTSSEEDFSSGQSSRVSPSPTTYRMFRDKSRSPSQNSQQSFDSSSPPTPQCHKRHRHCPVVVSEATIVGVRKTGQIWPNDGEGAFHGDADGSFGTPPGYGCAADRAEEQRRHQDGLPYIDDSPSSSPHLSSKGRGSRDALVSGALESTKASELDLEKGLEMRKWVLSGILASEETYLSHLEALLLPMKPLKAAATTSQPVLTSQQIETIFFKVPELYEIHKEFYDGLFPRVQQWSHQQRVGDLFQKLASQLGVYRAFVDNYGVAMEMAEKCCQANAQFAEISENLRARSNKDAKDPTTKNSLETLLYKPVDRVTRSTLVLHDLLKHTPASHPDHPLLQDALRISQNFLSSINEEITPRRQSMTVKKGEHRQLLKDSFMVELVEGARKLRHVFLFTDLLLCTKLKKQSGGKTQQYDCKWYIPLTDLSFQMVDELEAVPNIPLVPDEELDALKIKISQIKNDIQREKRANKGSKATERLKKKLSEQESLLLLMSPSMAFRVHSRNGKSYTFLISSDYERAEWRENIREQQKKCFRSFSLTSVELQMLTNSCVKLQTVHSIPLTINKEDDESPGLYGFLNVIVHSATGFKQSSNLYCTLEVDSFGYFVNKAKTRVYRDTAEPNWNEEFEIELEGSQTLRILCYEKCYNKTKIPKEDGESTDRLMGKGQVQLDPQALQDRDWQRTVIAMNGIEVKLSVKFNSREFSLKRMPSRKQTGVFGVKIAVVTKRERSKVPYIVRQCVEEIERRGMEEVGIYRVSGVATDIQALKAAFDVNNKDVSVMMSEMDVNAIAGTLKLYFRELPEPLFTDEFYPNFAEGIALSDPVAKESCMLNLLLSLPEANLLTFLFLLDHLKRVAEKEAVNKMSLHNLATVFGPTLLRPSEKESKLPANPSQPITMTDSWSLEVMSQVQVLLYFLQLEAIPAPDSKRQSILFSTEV
Bcr/Abl fusion protein (Homo sapiens), sequence (P00519 whole entry, looked up, the tested form may be a part): as the sequence (P00519 whole entry, the tested form may be a part) above
Bcr/Abl fusion protein (Homo sapiens), sequence (P11274 whole entry, looked up, the tested form may be a part): as the sequence (P11274 whole entry, further chain, the tested form may be a part) above

With `Cc1cn(-c2cc(NC(=O)c3ccc(C)c(Nc4nccc(-c5cccnc5)n4)c3)cc(C(F)(F)F)c2)cn1` [NILOTINIB], the pIC50 was 8.19 in the assay on K562 [1], 8.47 in assay [2] and 6.59 in the assay on K562 [3].

For the molecule `Cc1ccc(C(=O)Nc2cccc(C(F)(F)F)c2)cc1Nc1nc(-c2cccnc2)cs1`, the pIC50 is less than 5.00 against Bcr/Abl fusion protein, 5.52 in the assay with K562 [1], 5.91 in assay [2] and 5.84 with K562 [3].

In the case of `Cc1cn(-c2cc(NC(=O)c3ccc(C)c(Nc4nc(-c5cccnc5)cs4)c3)cc(C34CC5CC(CC(C5)C3)C4)c2)cn1`, the pIC50 on Bcr/Abl fusion protein is less than 5.70; with K562 [1], 5.97; in assay [2], 5.55; with K562 [3], 4.93.

In the case of `Cc1cn(-c2cc(NC(=O)c3ccc(C)c(Nc4nc(-c5cccnc5)cs4)c3)cc(C(F)(F)F)c2)cn1`, the pIC50 is 6.17 on Bcr/Abl fusion protein, 7.55 in the assay with K562 [1], 7.52 in assay [2] and 5.74 in the assay with K562 [3].

As to `Cc1cn(-c2cc(NC(=O)c3ccc(C)c(Nc4nc(-c5cccnc5)cs4)c3)cc(C(C)C)c2)cn1`, the pIC50 on Bcr/Abl fusion protein was 6.75; with K562 [1] it was 7.51; in assay [2], 7.29; with K562 [3] it was 5.54.

In the case of `CCc1ccc(C(=O)Nc2cc(-n3cnc(C)c3)cc(C(F)(F)F)c2)cc1Nc1nc(-c2cccnc2)cs1`, the pIC50 is 5.26 against Bcr/Abl fusion protein, 5.80 in the assay on K562 [1], 6.02 in [2] and 5.57 with K562 [3].

With `Cc1ccc(C(=O)Nc2cc(-c3cn(C)nn3)cc(C(F)(F)F)c2)cc1Nc1nc(-c2cccnc2)cs1`, the pIC50 against Bcr/Abl fusion protein was 6.56; in the assay on K562 [1] it was 7.24; in assay [2], 7.05; in the assay with K562 [3] it was 5.45.

In the case of `Cc1cn(-c2cc(NC(=O)c3cccc(Nc4nc(-c5cccnc5)cs4)c3)cc(C(F)(F)F)c2)cn1`, the negative logarithm of the IC50 (pIC50) was 5.42 against Bcr/Abl fusion protein, 5.50 in the assay on K562 [1], 5.56 in assay [2] and 5.76 in the assay with K562 [3].

In the case of `Cc1ncn(-c2cc(NC(=O)c3ccc(C)c(Nc4nc(-c5cccnc5)cs4)c3)cc(C(F)(F)F)c2)n1`, the pIC50 on Bcr/Abl fusion protein is 6.32; in the assay with K562 [1] it was 7.59; in assay [2], 7.42; with K562 [3], 5.79.

`Cc1cn(-c2cc(NC(=O)c3ccc(C)c(Nc4nc(-c5cccnc5)cs4)c3)cc(C(C)(C)C)c2)cn1`: the pIC50 against Bcr/Abl fusion protein is 7.70; in the assay with K562 [1], 8.00; in assay [2], 7.96; in the assay with K562 [3], 6.19. In assay [4], the inhibition result is “Active”. For the same molecule, the Activity with K562 [5] amounted to 55.19%; in the assay on K562 [6], 69.3%; in the assay on K562 [7], 75.53%; in the assay on K562 [8], 42.66%; with K562 [9], 30.45%; in the assay on K562 [10] it was 24.47%. Also, the Activity amounted to 2.15% with K562 [11]; 0.21% in the assay with K562 [12]; 0% in the assay with K562 [13]; 5.06% in the assay with K562 [17]; 6.87% in the assay with K562 [18]; 11.11% with K562 [19]. For the same molecule, the Activity with K562 [20] turned out to be 8.15%; in the assay on K562 [21], 16.34%; in the assay on K562 [22], 27.04%; in the assay on K562 [23] it was 1.14%; in the assay on K562 [24], 3.11%; with K562 [25], 5.18%. Also, the viability at 0.02 µM in the assay on K562 [14] came out at 95.7%. Further, the viability at 0.05 µM in the assay with K562 [15] worked out at 73.8%. Further, the viability at 0.1 µM in the assay on K562 [16] came out at 56.7%.

Consider `Cc1ccc(NC(=O)c2ccc(CN3CCN(C)CC3)cc2)cc1Nc1nccc(-c2cccnc2)n1` [IMATINIB], for which the figures for the pIC50 (in the assay with K562 [1]; in assay [2]; with K562 [3]) were 6.42, 6.47 and 8.22, respectively.

Take `Cc1cn(-c2cc(Cl)cc(NC(=O)c3ccc(C)c(Nc4nc(-c5cccnc5)cs4)c3)c2)cn1`: the pIC50 at Bcr/Abl fusion protein was 5.89; in the assay with K562 [1], 6.09; in [2] it was 6.29; in the assay on K562 [3], 5.63.

As for `Cc1ccc(C(=O)Nc2cc(-n3ccnc3)cc(C(F)(F)F)c2)cc1Nc1nc(-c2cccnc2)cs1`, the pIC50 on Bcr/Abl fusion protein was 6.29; in the assay on K562 [1], 7.55; in assay [2] it was 7.44; with K562 [3], 5.67.

On to `Cc1cc(NC(=O)c2ccc(C)c(Nc3nc(-c4cccnc4)cs3)c2)cc(-n2cnc(C)c2)c1`, for which the pIC50 on Bcr/Abl fusion protein was 6.11; with K562 [1], 6.35; in assay [2], 6.06; with K562 [3], 5.48.

Regarding `Cc1ccc(C(=O)Nc2cc(-c3cnn(C)c3)cc(C(F)(F)F)c2)cc1Nc1nc(-c2cccnc2)cs1`, the pIC50 is 6.31 against Bcr/Abl fusion protein, 7.57 in the assay on K562 [1], 7.57 in assay [2] and 5.27 with K562 [3].
